Drawing on patent US20090156577A1, “7-AMINO ALKYLIDENYL-HETEROCYCLIC QUINOLONES AND NAPHTHYRIDONES” (priority 2004, published 2009), this text covers MIC for 19 compounds.

In brackets after ≈: the same amount, converted by molar mass. Where two headings read alike, the source gives them in different places.

This assay concerns pathogenic bacteria. The assay is described as follows: MIC by microdilution broth method (NCCLS M7-A4), in vitro antibacterial activity. The assay is classed as cell-based. As for the experimental part:
Minimal inhibitory concentration (MIC) has been an indicator of in vitro antibacterial activity widely used in the art. The in vitro antimicrobial activity of the compounds was determined by the microdilution broth method following the test method from the National Committee for Clinical Laboratory Standards (NCCLS). This method is described in the NCCLS Document M7-A4, Vol. 17, No. 2, “Methods for Dilution Antimicrobial Susceptibility Test for Bacteria that Grow Aerobically—Fourth Edition”, which is incorporated herein by reference.
In this method two-fold serial dilutions of drug in cation adjusted Mueller-Hinton broth are added to wells in microdilution trays. The test organisms are prepared by adjusting the turbidity of actively growing broth cultures so that the final concentration of test organism after it is added to the wells is approximately 5×10^4 CFU/well.
Following inoculation of the microdilution trays, the trays are incubated at 35° C. for 16-20 hours and then read. […] The amount of growth in the wells containing the test compound is compared with the amount of growth in the growth-control wells (no test compound) used in each tray. As set forth in Table 5, compounds of the present invention were tested against a variety of pathogenic bacteria resulting in a range of activities depending on the organism tested.

Where [1] appears, read: Staphylococcus aureus, Organism A: Staphylococcus aureus OC4172, read-out: MIC.
[2] abbreviates: Streptococcus pneumoniae, ATCC49619, Organism E: Streptococcus pneumoniae ATCC 49619, read-out: MIC.
The mark [3] stands for this setting: Streptococcus pneumoniae, Organism B: fluoroquinolone-resistant clinical isolate of Streptococcus pneumoniae (QRDR amino acid substitutions).
The mark [4] stands for this setting: Streptococcus pneumoniae, Organism C: fluoroquinolone-resistant clinical isolate of Streptococcus pneumoniae (QRDR amino acid substitutions).
Where [5] appears, read: Streptococcus pneumoniae, Organism D: fluoroquinolone-resistant clinical isolate of Streptococcus pneumoniae (QRDR amino acid substitutions).
[6] abbreviates: Organism C: fluoroquinolone-resistant clinical isolate of Streptococcus pneumoniae (QRDR amino acid substitutions).

Usually MIC stands for the lowest concentration that inhibits growth of the organism. On to `NCC(Cl)=C1CCN1c1cc2c(cc1F)c(=O)c(C(=O)O)cn2C1CC1` [Compound 76, 7-[4-(2-Amino-1-chloro-ethylidene)-azetidin-1-yl}-1-cyclopropyl-6-fluoro-4-oxo-1,4-dihydro-quinoline-3-carboxylic acid], for which the minimal inhibitory concentration (MIC) stood at 0.03 mg/L (≈ 0.0794 µM) under setting [1]; 0.25 mg/L (≈ 0.662 µM) under setting [2]; 2 mg/L (≈ 5.29 µM) under setting [3]; 1 mg/L (≈ 2.65 µM) under setting [4]; 2 mg/L (≈ 5.29 µM) under setting [5].
`COc1c(N2CC(=C(F)CN)C2)ccc2c(=O)c(C(=O)O)cn(C3CC3)c12` [Compound 274, 7-[3-(2-amino-1-fluoro-ethylidene)-azetidin-1-yl]-1-cyclopropyl-8-methoxy-4-oxo-1,4-dihydro-quinoline-3-carboxylic acid]: the MIC by setting is: under setting [1], 0.06 mg/L (≈ 0.161 µM); under setting [2], 1 mg/L (≈ 2.68 µM); under setting [3], 4 mg/L (≈ 10.7 µM); under setting [4], 1 mg/L (≈ 2.68 µM).
On to `CNCC(C)=C1CCN(c2c(F)cc3c(=O)c(C(=O)O)cn(C4CC4)c3c2OC(F)F)CC1` [Compound 74, 1-Cyclopropyl-8-difluoromethoxy-6-fluoro-7-[4-(1-methyl-2-methylamino-ethylidene)-piperidin-1-yl]-4-oxo-1,4-dihydro-quinoline-3-carboxylic acid], for which the MIC came to 1 mg/L (≈ 2.15 µM) under setting [6], 0.12 mg/L (≈ 0.258 µM) (Organism E: Streptococcus pneumoniae ATCC 49619), 0.06 mg/L (≈ 0.129 µM) under setting [1] and 0.25 mg/L (≈ 0.537 µM) under setting [5].
Consider `CNCC(C)=C1CCN(c2cc3c(cc2F)c(=O)c(C(=O)O)cn3C2CC2)CC1` [Compound 218, 1-Cyclopropyl-6-fluoro-7-[4-(1-methyl-2-methylamino-ethylidene)-piperidin-1-yl]-4-oxo-1,4-dihydro-quinoline-3-carboxylic acid], for which the minimum inhibitory concentration (MIC) is 0.12 mg/L (≈ 0.3 µM) (Organism A: Staphylococcus aureus OC4172), 2 mg/L (≈ 5.01 µM) under setting [6], 0.25 mg/L (≈ 0.626 µM) under setting [2] and 2 mg/L (≈ 5.01 µM) under setting [5].
In the case of `COc1c(N2CCC/C(=C(/F)CN)C2)c(F)cc2c(=O)c(C(=O)O)cn(C3CC3)c12` [Compound 388, (Z)-7-[3-(2-Amino-1-fluoro-ethylidene)-piperidin-1-yl]-1-cyclopropyl-6-fluoro-8-methoxy-4-oxo-1,4-dihydro-quinoline-3-carboxylic acid], the MIC is, setting by setting: under setting [1], ≤ 0.25 mg/L; under setting [2], 0.5 mg/L (≈ 1.19 µM); under setting [3], 2 mg/L (≈ 4.77 µM); under setting [4], 8 mg/L (≈ 19.1 µM); under setting [5], 2 mg/L (≈ 4.77 µM).
`CC(C)NCC(F)=C1CCN(c2cc3c(cc2F)c(=O)c(C(=O)O)cn3C2CC2)CC1` [Compound 249, 1-Cyclopropyl-6-fluoro-7-[4-(1-fluoro-2-isopropylamino-ethylidene)-piperidin-1-yl]-4-oxo-1,4-dihydro-quinoline-3-carboxylic acid]: the MIC was determined as 1 mg/L (≈ 2.32 µM) under setting [1], 2 mg/L (≈ 4.64 µM) under setting [2], 16 mg/L (≈ 37.1 µM) under setting [4] and 4 mg/L (≈ 9.27 µM) under setting [5].
As to `Cc1c(F)c(N2CCC/C(=C(\Cl)CN)C2)cc2c1c(=O)c(C(=O)O)cn2C1CC1` [Compound 426, (E)-7-[3-(2-Amino-1-chloro-ethylidene)-piperidin-1-yl]-1-cyclopropyl-6-fluoro-5-methyl-4-oxo-1,4-dihydro-quinoline-3-carboxylic acid], the minimal inhibitory concentration (MIC) is, setting by setting: under setting [1], ≤ 0.015 mg/L; under setting [2], 0.06 mg/L (≈ 0.143 µM); under setting [3], ≤ 0.5 mg/L; under setting [4], 1 mg/L (≈ 2.38 µM); under setting [5], 0.25 mg/L (≈ 0.595 µM).
`NC/C(Cl)=C1\CCCN(c2nc3c(cc2F)c(=O)c(C(=O)O)cn3C2CC2)CC1` [Compound 378, (Z)-7-[4-(2-Amino-1-chloro-ethylidene)-azepan-1-yl]-1-cyclopropyl-6-fluoro-4-oxo-1,4-dihydro-[1,8]naphthyridine-3-carboxylic acid]: the MIC came out at 0.25 mg/L (≈ 0.594 µM) under setting [1], 1 mg/L (≈ 2.38 µM) under setting [2], 4 mg/L (≈ 9.5 µM) under setting [4] and 16 mg/L (≈ 38 µM) under setting [5].
Turning to `CC(CN)=C1CN(c2c(F)cc3c(=O)c(C(=O)O)cn(-c4nc(N)c(F)cc4F)c3c2Cl)C1` [Compound 421, 1-(6-Amino-3,5-difluoro-pyridin-2-yl)-7-[3-(2-amino-1-methyl-ethylidene)-azetidin-1-yl]-8-chloro-6-fluoro-4-oxo-1,4-dihydro-quinoline-3-carboxylic acid], the minimal inhibitory concentration (MIC) reads like this: under setting [1], 0.06 mg/L (≈ 0.125 µM); under setting [2], 0.25 mg/L (≈ 0.521 µM); under setting [4], 2 mg/L (≈ 4.17 µM); under setting [5], 1 mg/L (≈ 2.08 µM).
On the same counts, the results for `COc1c(N2CCC/C(=C(/Cl)CN)CC2)c(F)cc2c(=O)c(C(=O)O)cn(C3CC3)c12` [Compound 393, (Z)-7-[4-(2-Amino-1-chloro-ethylidene)-azepan-1-yl]-1-cyclopropyl-6-fluoro-8-methoxy-4-oxo-1,4-dihydro-quinoline-3-carboxylic acid] are 0.25 mg/L (≈ 0.556 µM), 0.5 mg/L (≈ 1.11 µM), 8 mg/L (≈ 17.8 µM) and 2 mg/L (≈ 4.45 µM).
Regarding `COc1c(N2CCC(=C(Cl)CNC(C)C)CC2)c(F)cc2c(=O)c(C(=O)O)cn(C3CC3)c12` [Compound 196, 7-[4-(1-Chloro-2-isopropylamino-ethylidene)-piperidin-1-yl]-1-cyclopropyl-6-fluoro-8-methoxy-4-oxo-1,4-dihydro-quinoline-3-carboxylic acid], the MIC under setting [1] was determined as 0.12 mg/L (≈ 0.251 µM), the MIC under setting [2] was found to be 0.5 mg/L (≈ 1.05 µM), the minimal inhibitory concentration (MIC) under setting [4] was found to be 4 mg/L (≈ 8.37 µM) and the MIC under setting [5] turned out to be 2 mg/L (≈ 4.18 µM).
On to `NC/C(F)=C1/CCCN(c2cc3c(cc2F)c(=O)c(C(=O)O)cn3C2CC2)CC1` [Compound 502, (E)-7-[4-(2-Amino-1-fluoro-ethylidene)-azepan-1-yl]-1-cyclopropyl-6-fluoro-4-oxo-1,4-dihydro-quinoline-3-carboxylic acid], for which the minimal inhibitory concentration (MIC) runs as follows: under setting [1], 0.5 mg/L (≈ 1.24 µM); under setting [2], 4 mg/L (≈ 9.92 µM); under setting [3], 16 mg/L (≈ 39.7 µM); under setting [4], 16 mg/L (≈ 39.7 µM); under setting [5], > 16 mg/L.
As to `Cc1c(F)c(N2CCC/C(=C(/F)CN)C2)cc2c1c(=O)c(C(=O)O)cn2C1CC1` [Compound 425, (Z)-7-[3-(2-Amino-1-fluoro-ethylidene)-piperidin-1-yl]-1-cyclopropyl-6-fluoro-5-methyl-4-oxo-1,4-dihydro-quinoline-3-carboxylic acid], the minimum inhibitory concentration (MIC) reads like this: under setting [1], 0.06 mg/L (≈ 0.149 µM); under setting [2], 1 mg/L (≈ 2.48 µM); under setting [3], 4 mg/L (≈ 9.92 µM); under setting [4], 16 mg/L (≈ 39.7 µM); under setting [5], 8 mg/L (≈ 19.8 µM).
The like results for `C[C@H]1COc2c(N3CCC/C(=C(\Cl)CN)C3)c(F)cc3c(=O)c(C(=O)O)cn1c23` [Compound 400, (E)-9-[3-(2-Amino-1-chloro-ethylidene)-piperidin-1-yl]-8-fluoro-(3S)-3-methyl-6-oxo-2,3-dihydro-6H-1-oxa-3a-aza-phenalene-5-carboxylic acid] were, in that order, ≤ 0.015 mg/L, 0.06 mg/L (≈ 0.142 µM), 0.25 mg/L (≈ 0.593 µM), 0.5 mg/L (≈ 1.19 µM) and 0.5 mg/L (≈ 1.19 µM).
With `NC/C(Cl)=C1/CCCN(c2c(F)cc3c(=O)c(C(=O)O)cn(C4CC4)c3c2OC(F)F)C1` [Compound 260, (E)-7-[3-(2-Amino-1-chloro-ethylidene)-piperidin-1-yl]-1-cyclopropyl-8-difluoromethoxy-6-fluoro-4-oxo-1,4-dihydro-quinoline-3-carboxylic acid], the MIC is, setting by setting: under setting [1], 0.03 mg/L (≈ 0.0636 µM); under setting [2], 0.06 mg/L (≈ 0.127 µM); under setting [4], 0.5 mg/L (≈ 1.06 µM); under setting [5], 0.06 mg/L (≈ 0.127 µM).
On to `CCNCC(F)=C1CCN(c2c(F)cc3c(=O)c(C(=O)O)cn(C4CC4)c3c2OC)CC1` [Compound 214, 1-Cyclopropyl-7-[4-(2-ethylamino-1-fluoro-ethylidene)-piperidin-1-yl]-6-fluoro-8-methoxy-4-oxo-1,4-dihydro-quinoline-3-carboxylic acid], for which the minimal inhibitory concentration (MIC) reads like this: under setting [1], 0.06 mg/L (≈ 0.134 µM); under setting [2], 0.25 mg/L (≈ 0.559 µM); under setting [4], 1 mg/L (≈ 2.23 µM); under setting [5], 1 mg/L (≈ 2.23 µM).
For `COc1c(N2CCC(=C(Cl)CN)CC2)ccc2c(=O)c(C(=O)O)cn(C3CC3)c12` [Compound 275, 7-[4-(2-Amino-1-chloro-ethylidene)-piperidin-1-yl]-1-cyclopropyl-8-methoxy-4-oxo-1,4-dihydro-quinoline-3-carboxylic acid], the minimum inhibitory concentration (MIC) was 0.03 mg/L (≈ 0.0718 µM) under setting [1]; 0.12 mg/L (≈ 0.287 µM) under setting [2]; 1 mg/L (≈ 2.39 µM) under setting [3]; 1 mg/L (≈ 2.39 µM) under setting [4]; 1 mg/L (≈ 2.39 µM) under setting [5].
With `COc1c(N2CC/C(=C(/F)CN)C(C)C2)c(F)cc2c(=O)c(C(=O)O)cn(C3CC3)c12` (centres unmarked) [Compound 11, (Z)-7-[4-(2-Amino-1-fluoro-ethylidene)-3-methyl-piperidin-1-yl]-1-cyclopropyl-6-fluoro-8-methoxy-4-oxo-1,4-dihydro-quinoline-3-carboxylic acid], the MIC runs as follows: under setting [1], 0.03 mg/L (≈ 0.0692 µM); under setting [2], 0.12 mg/L (≈ 0.277 µM); under setting [4], 0.5 mg/L (≈ 1.15 µM); under setting [5], 1 mg/L (≈ 2.31 µM).
The like results for `COc1c(N2CCC(=C(C#N)CN)CC2)c(F)cc2c(=O)c(C(=O)O)cn([C@@H]3C[C@@H]3F)c12` [Compound 439, 7-[4-(2-Amino-1-cyano-ethylidene)-piperidin-1-yl]-6-fluoro-(1R,2S)-1-(2-fluoro-cyclopropyl)-8-methoxy-4-oxo-1,4-dihydro-quinoline-3-carboxylic Acid] were, in that order, 0.06 mg/L (≈ 0.135 µM), 0.25 mg/L (≈ 0.563 µM), 2 mg/L (≈ 4.5 µM) and 2 mg/L (≈ 4.5 µM).
